Results published in PMC5674900, “Identification of new channels by systematic analysis of the mitochondrial outer membrane” (The Journal of Cell Biology, 2017).
Where a chain is given by its changes, count along the chain named.

What was measured:
Ayr1 [1] = biological target: T1, Ayr1 (Saccharomyces cerevisiae, UniProt P40471); experiment: planar lipid bilayer electrophysiology, reconstituted channel; assay type: biochemical; conditions: 1 mM NADPH; symmetrical 250 mM KCl, pH 7.0; activator of channel gating
T1 construct: ORF with His10 tag, expressed in E. coli BL21(DE3), purified in urea, reconstituted into liposomes / planar lipid bilayer; 33 kD
T1 sequence (P40471 1-297): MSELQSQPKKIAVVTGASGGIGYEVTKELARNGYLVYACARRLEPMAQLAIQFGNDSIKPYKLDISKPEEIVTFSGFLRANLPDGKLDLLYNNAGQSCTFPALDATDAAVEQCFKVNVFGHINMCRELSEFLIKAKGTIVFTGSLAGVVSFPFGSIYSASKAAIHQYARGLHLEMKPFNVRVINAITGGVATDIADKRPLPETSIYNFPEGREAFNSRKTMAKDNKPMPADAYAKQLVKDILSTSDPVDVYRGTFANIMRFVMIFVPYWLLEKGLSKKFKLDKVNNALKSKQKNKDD

Ayr1 [2] = biological target: T2, Ayr1 (Saccharomyces cerevisiae, UniProt P40471, G20A/G22A); experiment: as above; assay type: biochemical; conditions: 1 mM NADPH; symmetrical 250 mM KCl, pH 7.0; activator of channel gating; NADPH-binding motif mutant, effect mostly abolished
T2 construct: ORF with His10 tag, expressed in E. coli BL21(DE3), purified in urea, reconstituted into liposomes / planar lipid bilayer; 33 kD
T2 sequence (P40471 1-297 G20A/G22A): T1 sequence (P40471 1-297) with G20A, G22A

NC(=O)C1=CN([C@@H]2O[C@H](COP(=O)(O)OP(=O)(O)OC[C@H]3O[C@@H](n4cnc5c(N)ncnc54)[C@H](OP(=O)(O)O)[C@@H]3O)[C@@H](O)[C@H]2O)C=CC1 [NADPH]
planar lipid bilayer electrophysiology, reconstituted channel (Ayr1 [1]): NADPH strongly stimulated the frequency of gating between the distinct states | planar lipid bilayer electrophysiology, reconstituted channel (Ayr1 [2]): the effect of NAPDH was mostly abolished, and no increase of the gating frequency was observed
